Measured values taken from US11760722B2 (priority 2022, dated 2023).
Several values for one entry are separate records, joined by “and”; a condition that tells them apart may be missing. Identical values can stand only once. Like-named read-outs stand apart in the source and are kept apart here.

What was measured:
[1] = system: human coronavirus (HCoV) 229E; experiment: microbe, parasite or virus in culture; format: cell-based, human coronavirus 229E; settings: MRCS cells, HCoV 229E, 3 days, CellTiter Glo, read-out: 229E CPE EC50
Method: Test compounds were provided by the sponsor. Reference compound remdesivir was provided by WuXi AppTec. Compounds were assayed at 8 concentrations (to be defined by sponsor), in duplicate wells.
MRCS cells were obtained from the ATCC, and maintained in the Minimum Essential Medium supplemented with 10% FBS, 1% L-glutamine, 1% NEAA and 1% penicillin-streptomycin. Minimum Essential Medium supplemented with 5% FBS, 1% L-glutamine, 1% NEAA and 1% penicillin-streptomycin was used as the assay medium.
Cells were seeded in 96 well plates, in 100 μl per well of assay medium, and cultured at 37° C. and 5% CO2 overnight. Next day, test compound was diluted with assay medium and then added into the cells, 50 μl per well. Then 50 μl per well of assay medium diluted virus was added. The final volume of the cell culture was 200 μl per well. […] The CPE were measured by CellTiter Glo following the manufacturer's manual. The antiviral activity of compounds was calculated based on the protection of the virus-induced CPE at each concentration normalized by the virus control.
EC50 and CC50 values were calculated using the GraphPad Prism software using the nonlinear regression model of log(inhibitor) vs. response—Variable slope (four parameters).

SARS-CoV-2 replicon = experiment: microbe, parasite or virus in culture; format: cell-based
[2] = unidentified human coronavirus, 72 h
[3] = Severe acute respiratory syndrome coronavirus 2, Huh-7, 24 h; read-out: Replicon EC50

Row | Structure (SMILES) | EC50 [1, 2] [nM] | EC50 (SARS-CoV-2 replicon; [3]) [nM] | also measured
1 | CC(C)(C)[C@H](NC(=O)CC#N)C(=O)N1C[C@H]2[C@@H]([C@H]1C(=O)N[C@H](C#N)C[C@@H]1CCNC1=O)C2(C)C [Compound 33] | 17800 | – | EC50 [1]: 18000 nM
2 | CNC(=S)N[C@H](C(=O)N1C[C@H]2[C@@H]([C@H]1C(=O)N[C@H](C#N)C[C@@H]1CCNC1=O)C2(C)C)C(C)(C)C [Compound 35] | 4960 | – | –
3 | CC(C)(C)[C@H](NS(=O)(=O)c1ccc(C(F)(F)F)cc1)C(=O)N1C[C@H]2[C@@H]([C@H]1C(=O)N[C@H](C#N)C[C@@H]1CCNC1=O)C2(C)C [Compound 44] | – | – | EC50 (SARS-CoV-2 replicon; read-out: Replicon EC50): > 30000 nM
4 | CN(C)S(=O)(=O)N[C@H](C(=O)N1C[C@H]2[C@@H]([C@H]1C(=O)N[C@H](C#N)C[C@@H]1CCNC1=O)C2(C)C)C(C)(C)C [Compound 47, (1R,2S,5S)—N—((S)-1-cyano-2-((S)-2-oxopyrrolidin-3-yl)ethyl)-3-((S)-2-((N,N-dimethylsulfamoyl)amino)-3,3-dimethylbutanoyl)-6,6-dimethyl-3-azabicyclo[3.1.0]hexane-2-carboxamide] | 6190 | – | EC50 [1]: 7320 nM
5 | CC(C)(C)[C@H](NS(=O)(=O)N1CCOCC1)C(=O)N1C[C@H]2[C@@H]([C@H]1C(=O)N[C@H](C#N)C[C@@H]1CCNC1=O)C2(C)C [Compound 49] | 3880 | – | EC50 [1]: 5780 nM
6 | CC(C)(C)[C@H](NC(=S)Nc1cccc(C(F)(F)F)c1)C(=O)N1C[C@H]2[C@@H]([C@H]1C(=O)N[C@H](C#N)C[C@@H]1CCNC1=O)C2(C)C [Compound 52] | – | 410 | –
7 | CC(C)(C)NC(=S)N[C@H](C(=O)N1C[C@H]2[C@@H]([C@H]1C(=O)N[C@H](C#N)C[C@@H]1CCNC1=O)C2(C)C)C(C)(C)C [Compound 56] | – | – | EC50 (SARS-CoV-2 replicon; Severe acute respiratory syndrome coronavirus 2, Huh-7, 24 h, read-out: Replicon EC50): 370 nM
8 | CN1CCCC1C(=O)N[C@H](C(=O)N1C[C@H]2[C@@H]([C@H]1C(=O)N[C@H](C#N)C[C@@H]1CCNC1=O)C2(C)C)C(C)(C)C (some centres unmarked) [Compound 58] | – | 4720 | –
9 | CNC(C)(C)C(=O)N[C@H](C(=O)N1C[C@H]2[C@@H]([C@H]1C(=O)N[C@H](C#N)C[C@@H]1CCNC1=O)C2(C)C)C(C)(C)C [Compound 59] | – | 16200 | –
10 | CC(C)(C)OC(=O)N(C(=O)N1C[C@H]2[C@@H]([C@H]1C(=O)N[C@H](C#N)C[C@@H]1CCNC1=O)C2(C)C)[C@@H]1C[C@H]1C(F)F [Compound 60] | – | > 30000 | –
11 | C=CC(=O)N[C@H](C(=O)N1C[C@H]2[C@@H]([C@H]1C(=O)N[C@H](C#N)C[C@@H]1CCNC1=O)C2(C)C)C(C)(C)C [Compound 61] | – | 2740 | –
12 | CC(C)(C)[C@H](NS(=O)(=O)N1CC2CC1C2)C(=O)N1C[C@H]2[C@@H]([C@H]1C(=O)N[C@H](C#N)C[C@@H]1CCNC1=O)C2(C)C [Compound 62] | – | 1490 | –
13 | CC(C)(C)[C@H](NC(=O)C1CC2(CCC2)C1)C(=O)N1C[C@H]2[C@@H]([C@H]1C(=O)N[C@H](C#N)C[C@@H]1CCNC1=O)C2(C)C [Compound 63] | – | 730 | –
14 | CC(C)(C)[C@H](NC(=O)CS(C)(=O)=O)C(=O)N1C[C@H]2[C@@H]([C@H]1C(=O)N[C@H](C#N)C[C@@H]1CCNC1=O)C2(C)C [Compound 64] | – | 990 | –
15 | CC1(C(=O)N[C@H](C(=O)N2C[C@H]3[C@@H]([C@H]2C(=O)N[C@H](C#N)C[C@@H]2CCNC2=O)C3(C)C)C(C)(C)C)CCCN1 (some centres unmarked) [Compound 65] | – | 18700 | –
16 | C=C(F)C(=O)N[C@H](C(=O)N1C[C@H]2[C@@H]([C@H]1C(=O)N[C@H](C#N)C[C@@H]1CCNC1=O)C2(C)C)C(C)(C)C [Compound 66] | 1080 | – | EC50 [1]: 1400 nM
17 | COC1(CC(=O)N[C@H](C(=O)N2C[C@H]3[C@@H]([C@H]2C(=O)N[C@H](C#N)C[C@@H]2CCNC2=O)C3(C)C)C(C)(C)C)CCC1 [Compound 67] | – | > 30000 | –
18 | CC(C)(C)[C@H](NC(=O)CC12CC(C(F)(F)F)(C1)C2)C(=O)N1C[C@H]2[C@@H]([C@H]1C(=O)N[C@H](C#N)C[C@@H]1CCNC1=O)C2(C)C [Compound 68] | – | 1920 | –
19 | COC12CCC(C(=O)N[C@H](C(=O)N3C[C@H]4[C@@H]([C@H]3C(=O)N[C@H](C#N)C[C@@H]3CCNC3=O)C4(C)C)C(C)(C)C)(CC1)CC2 [Compound 69] | – | 10300 | –
20 | CC(C)(C)[C@H](NC(=O)C(Cl)(Cl)C(F)(F)F)C(=O)N1C[C@H]2[C@@H]([C@H]1C(=O)N[C@H](C#N)C[C@@H]1CCNC1=O)C2(C)C [Compound 71] | 302 | – | EC50 [1]: 321 nM
21 | CCNC(=S)N[C@H](C(=O)N1C[C@H]2[C@@H]([C@H]1C(=O)N[C@H](C#N)C[C@@H]1CCNC1=O)C2(C)C)C(C)(C)C [Compound 72] | 718 | – | EC50 [1]: 890 nM
22 | CC(C)(C)[C@H](NC(=O)Cc1ccc2c(c1)CCC2)C(=O)N1C[C@H]2[C@@H]([C@H]1C(=O)N[C@H](C#N)C[C@@H]1CCNC1=O)C2(C)C [Compound 82] | 449 | – | EC50 [1]: 515 nM

Row | Structure (SMILES) | EC50 [1, 2] [nM] | EC50 (SARS-CoV-2 replicon; [3]) [nM] | also measured
23 | CC(C)(C)[C@H](NS(=O)(=O)c1cccc2ccccc12)C(=O)N1C[C@H]2[C@@H]([C@H]1C(=O)N[C@H](C#N)C[C@@H]1CCNC1=O)C2(C)C [Compound 85] | 238 | – | EC50 [1]: 368 nM
24 | CC(C)(C)[C@H](NS(=O)(=O)c1cccnc1)C(=O)N1C[C@H]2[C@@H]([C@H]1C(=O)N[C@H](C#N)C[C@@H]1CCNC1=O)C2(C)C [Compound 93] | 3060 | – | EC50 [1]: 4380 nM
25 | Cc1ccc(S(=O)(=O)N[C@H](C(=O)N2C[C@H]3[C@@H]([C@H]2C(=O)N[C@H](C#N)C[C@@H]2CCNC2=O)C3(C)C)C(C)(C)C)cc1 [Compound 96] | 246 | – | EC50 [1]: 339 nM
26 | CC(C)(C)[C@H](NS(=O)(=O)c1cccs1)C(=O)N1C[C@H]2[C@@H]([C@H]1C(=O)N[C@H](C#N)C[C@@H]1CCNC1=O)C2(C)C [Compound 100] | 432 | – | EC50 [1]: 636 nM
27 | CC(C)(C)[C@H](NS(=O)(=O)c1ccc2ccccc2c1)C(=O)N1C[C@H]2[C@@H]([C@H]1C(=O)N[C@H](C#N)C[C@@H]1CCNC1=O)C2(C)C [Compound 102] | 84 | – | EC50 [1]: 125 nM
28 | Cc1csc(S(=O)(=O)N[C@H](C(=O)N2C[C@H]3[C@@H]([C@H]2C(=O)N[C@H](C#N)C[C@@H]2CCNC2=O)C3(C)C)C(C)(C)C)c1 [Compound 112] | – | 62 | EC50 (SARS-CoV-2 replicon; read-out: Replicon EC50): 86 nM
29 | C#CCC(=O)N[C@H](C(=O)N1C[C@H]2[C@@H]([C@H]1C(=O)N[C@H](C#N)C[C@@H]1CCNC1=O)C2(C)C)C(C)(C)C [Compound 136] | – | 300 | EC50 (SARS-CoV-2 replicon; read-out: Replicon EC50): 320 nM and 420 nM and 540 nM
30 | CC(C)(C)[C@H](NS(=O)(=O)c1ccsc1)C(=O)N1C[C@H]2[C@@H]([C@H]1C(=O)N[C@H](C#N)C[C@@H]1CCNC1=O)C2(C)C [Compound 139] | – | 140 | EC50 (SARS-CoV-2 replicon; read-out: Replicon EC50): 160 nM
31 | CCOc1ccccc1S(=O)(=O)N[C@H](C(=O)N1C[C@H]2[C@@H]([C@H]1C(=O)N[C@H](C#N)C[C@@H]1CCNC1=O)C2(C)C)C(C)(C)C [Compound 143] | – | 65 | EC50 (SARS-CoV-2 replicon; read-out: Replicon EC50): 130 nM
32 | CC(C)(C)[C@H](NC(=O)C(F)(F)OCC(F)(F)F)C(=O)N1C[C@H]2[C@@H]([C@H]1C(=O)N[C@H](C#N)C[C@@H]1CCNC1=O)C2(C)C [Compound 144] | – | 110 | EC50 (SARS-CoV-2 replicon; read-out: Replicon EC50): 180 nM
33 | CC(C)(C)[C@H](NC(=O)c1cccc(S(F)(F)(F)(F)F)c1)C(=O)N1C[C@H]2[C@@H]([C@H]1C(=O)N[C@H](C#N)C[C@@H]1CCNC1=O)C2(C)C [Compound 145] | – | 3960 | EC50 (SARS-CoV-2 replicon; read-out: Replicon EC50): 4000 nM
34 | CC(C)(C)[C@H](NC(=O)C(F)(F)C(F)(F)C(F)(F)C(F)(F)F)C(=O)N1C[C@H]2[C@@H]([C@H]1C(=O)N[C@H](C#N)C[C@@H]1CCNC1=O)C2(C)C [Compound 146] | – | 80 | EC50 (SARS-CoV-2 replicon; read-out: Replicon EC50): 85 nM
35 | CC(C)(C)[C@H](NC(=O)c1ccc(S(F)(F)(F)(F)F)cc1)C(=O)N1C[C@H]2[C@@H]([C@H]1C(=O)N[C@H](C#N)C[C@@H]1CCNC1=O)C2(C)C [Compound 147] | – | > 10000 | –
36 | Cc1c(S(=O)(=O)N[C@H](C(=O)N2C[C@H]3[C@@H]([C@H]2C(=O)N[C@H](C#N)C[C@@H]2CCNC2=O)C3(C)C)C(C)(C)C)sc2ccc(F)cc12 [Compound 148] | – | 16 | –
37 | CC(C)(C)[C@H](NC(=O)CC(C(F)(F)F)C(F)(F)F)C(=O)N1C[C@H]2[C@@H]([C@H]1C(=O)N[C@H](C#N)C[C@@H]1CCNC1=O)C2(C)C [Compound 149] | – | 240 | –
38 | CN([C@H](C(=O)N1C[C@H]2[C@@H]([C@H]1C(=O)N[C@H](C#N)C[C@@H]1CCNC1=O)C2(C)C)C(C)(C)C)S(=O)(=O)c1ccc2ccccc2c1 [Compound 150] | – | 2910 | –
39 | Cc1cc(C)c(S(=O)(=O)N[C@H](C(=O)N2C[C@H]3[C@@H]([C@H]2C(=O)N[C@H](C#N)C[C@@H]2CCNC2=O)C3(C)C)C(C)(C)C)c(C)c1 [Compound 152] | – | 65 | –
40 | CCN([C@H](C(=O)N1C[C@H]2[C@@H]([C@H]1C(=O)N[C@H](C#N)C[C@@H]1CCNC1=O)C2(C)C)C(C)(C)C)S(=O)(=O)c1ccc(OC)cc1 [Compound 153] | – | 2110 | –
41 | CN([C@H](C(=O)N1C[C@H]2[C@@H]([C@H]1C(=O)N[C@H](C#N)C[C@@H]1CCNC1=O)C2(C)C)C(C)(C)C)S(=O)(=O)c1ccc(Cl)s1 [Compound 155] | – | > 10000 | –
42 | CN([C@H](C(=O)N1C[C@H]2[C@@H]([C@H]1C(=O)N[C@H](C#N)C[C@@H]1CCNC1=O)C2(C)C)C(C)(C)C)S(=O)(=O)c1cccc2ccccc12 [Compound 156] | – | 1400 | –
43 | CCCc1ccc(S(=O)(=O)N[C@H](C(=O)N2C[C@H]3[C@@H]([C@H]2C(=O)N[C@H](C#N)C[C@@H]2CCNC2=O)C3(C)C)C(C)(C)C)s1 [Compound 171] | – | 29 | –
